Measurements as given in ChEMBL document CHEMBL4000195, “Design and synthesis of novel 7-aminosubstituted pyrido[2,3-b]pyrazines exhibiting anti-breast cancer activity” (Eur J Med Chem, 2017).
Active and inactive are the calls of the source. No cut-off for these calls is given here.

How the values were obtained:
[1] = target: Tyrosine-protein kinase Lck (Homo sapiens) (UniProt P06239); assay: Inhibition of human wild type partial length LCK (R207 to P509 residues) expressed in bacterial expression system at 10 uM by KinomeScan method relative to control
[2] = target: Tyrosine-protein kinase TXK (Homo sapiens) (UniProt P42681); assay: Inhibition of human wild type partial length TXK (L238 to W527 residues) expressed in bacterial expression system at 10 uM by KinomeScan method relative to control
[3] = AUC (0 to 8 hrs) in NOD/SCID mouse at 0.5 mg/kg, ip administered as single dose by LC-MS/MS method; assay type: ADME, organism-based; parameters: dose 0.5 mg/kg, time < 8 hr, route intraperitoneal; settings: in vivo
Mus musculus [4] = assay: In vivo inhibition of SRC phosphorylation at Tyr-416 residue in NOD/SCID mouse tumor xenografted with HER2-amplified human HCC1954 cells at 10 mg/kg, ip administered once daily for 18 days measured after 1 hr last dose by […]; assay type: functional, organism-based
MDA-MB-231 = assay: Cytotoxicity against human MDA-MB-231 cells at 10 uM by MTT assay; assay type: functional
[5] = target: RAC-alpha serine/threonine-protein kinase (Homo sapiens) (UniProt P31749); assay: Inhibition of human wild type partial length AKT1 expressed in bacterial expression system at 10 uM by KinomeScan method relative to control
[6] = target: Dual specificity mitogen-activated protein kinase kinase 4 (Homo sapiens) (UniProt P45985); assay: Inhibition of human wild type partial length MEK4 (S84 to D399 residues) expressed in mammalian expression system at 10 uM by KinomeScan method relative to control
[7] = target: Glycogen synthase kinase-3 (Sus scrofa) (UniProt B2LUN4+I6LNT8); assay: Inhibition of pig GSK3alpha/beta using GS-1 as substrate in presence of [gamma33P]ATP after 30 mins by scintillation counting method
[8] = target: Fibroblast growth factor receptor 1 (Homo sapiens) (UniProt P11362); assay: Inhibition of human wild type partial length FGFR1 (P357 to V669 residues) expressed in bacterial expression system at 10 uM by KinomeScan method relative to control
HCC1954 [9] = assay: Cytotoxicity against human HCC1954 cells at 10 uM by MTT assay; assay type: functional
Mus musculus [10] = assay: In vivo inhibition of Akt phosphorylation at Ser473 residue in NOD/SCID mouse tumor xenografted with HER2-amplified human HCC1954 cells at 10 mg/kg, ip administered once daily for 18 days measured after 1 hr last dose; assay type: functional, organism-based
T47D = assay: Cytotoxicity against human T47D cells at 10 uM by MTT assay; assay type: functional
[11] = Cmax in NOD/SCID mouse at 0.5 mg/kg, po administered as single dose by LC-MS/MS method; assay type: ADME, organism-based; parameters: dose 0.5 mg/kg, route oral; settings: in vivo
[12] = target: Epidermal growth factor receptor (Homo sapiens) (UniProt P00533); assay: Inhibition of human EGFR (R669 to V1011 residues) expressed in bacterial expression system at 10 uM by KinomeScan method relative to control
[13] = target: Vascular endothelial growth factor receptor 2 (Homo sapiens) (UniProt P35968); assay: Inhibition of recombinant human GST-tagged VEGFR-2 (789-end residues) transphosphorylation activity expressed in baculovirus infected Sf9 cells using poly[Glu:Tyr] (4:1) as substrate after 60 mins
[14] = target: Vascular endothelial growth factor receptor 2 (Homo sapiens) (UniProt P35968); assay: Inhibition of human wild type partial length VEGFR2 (R787 to P1253 residues) expressed in mammalian expression system at 10 uM by KinomeScan method relative to control
[15] = target: Mitogen-activated protein kinase kinase kinase 1 (Homo sapiens) (UniProt Q13233); assay: Inhibition of human wild type partial length MAP3K1 (L1202 to W1512 residues) expressed in mammalian expression system at 10 uM by KinomeScan method relative to control
[16] = target: Dual specificity tyrosine-phosphorylation-regulated kinase 1A (Rattus norvegicus) (UniProt Q63470); assay: Inhibition of rat DYRK1A using myelin basic protein as substrate in presence of [gamma33P]ATP after 30 mins by scintillation counting method
[17] = target: Proto-oncogene tyrosine-protein kinase Src (Homo sapiens) (UniProt P12931); assay: Inhibition of human wild type partial length SRC (L240 to L536 residues) expressed in bacterial expression system at 10 uM by KinomeScan method relative to control
[18] = target: Tyrosine-protein kinase Tec (Homo sapiens) (UniProt P42680); assay: Inhibition of human wild type partial length TEC (L341 to D620 residues) expressed in bacterial expression system at 10 uM by KinomeScan method relative to control
[19] = target: Tyrosine-protein kinase HCK (Homo sapiens) (UniProt P08631); assay: Inhibition of human wild type full length HCK (M22 to P526 residues) expressed in bacterial expression system at 10 uM by KinomeScan method relative to control
[20] = AUC (0 to 24 hrs) in NOD/SCID mouse at 10 mg/kg, ip administered twice by LC-MS/MS method; assay type: ADME, organism-based; parameters: time < 24 hr, dose 10 mg/kg, route intraperitoneal; settings: in vivo
[21] = Cmax in NOD/SCID mouse at 0.5 mg/kg, ip administered as single dose by LC-MS/MS method; assay type: ADME, organism-based; parameters: dose 0.5 mg/kg, route intraperitoneal; settings: in vivo
[22] = AUC (0 to 8 hrs) in NOD/SCID mouse at 40 mg/kg, ip administered as single dose by LC-MS/MS method; assay type: ADME, organism-based; parameters: time < 8 hr, dose 40 mg/kg, route intraperitoneal; settings: in vivo
[23] = target: Tyrosine-protein kinase JAK3 (Homo sapiens) (UniProt P52333); assay: Inhibition of human wild type partial length JAK3 (I781 to S1124 residues) expressed in mammalian expression system at 10 uM by KinomeScan method relative to control
HCC1954 [24] = assay: Cytotoxicity against human HCC1954 cells by MTT assay; assay type: functional, cell-based
[25] = target: Tyrosine-protein kinase Fyn (Homo sapiens) (UniProt P06241); assay: Inhibition of human wild type partial length FYN (T243 to L534 residues) expressed in bacterial expression system at 10 uM by KinomeScan method relative to control
[26] = target: Mitogen-activated protein kinase 1 (Homo sapiens) (UniProt P28482); assay: Inhibition of human wild type full length ERK2 (M1 to S360 residues) expressed in bacterial expression system at 10 uM by KinomeScan method relative to control
[27] = target: Hepatocyte growth factor receptor (Homo sapiens) (UniProt P08581); assay: Inhibition of human wild type partial length MET (D1010 to S1367 residues) expressed in bacterial expression system at 10 uM by KinomeScan method relative to control

Vascular endothelial growth factor receptor 2 (Homo sapiens), sequence (P35968 whole entry, the tested form may be a part): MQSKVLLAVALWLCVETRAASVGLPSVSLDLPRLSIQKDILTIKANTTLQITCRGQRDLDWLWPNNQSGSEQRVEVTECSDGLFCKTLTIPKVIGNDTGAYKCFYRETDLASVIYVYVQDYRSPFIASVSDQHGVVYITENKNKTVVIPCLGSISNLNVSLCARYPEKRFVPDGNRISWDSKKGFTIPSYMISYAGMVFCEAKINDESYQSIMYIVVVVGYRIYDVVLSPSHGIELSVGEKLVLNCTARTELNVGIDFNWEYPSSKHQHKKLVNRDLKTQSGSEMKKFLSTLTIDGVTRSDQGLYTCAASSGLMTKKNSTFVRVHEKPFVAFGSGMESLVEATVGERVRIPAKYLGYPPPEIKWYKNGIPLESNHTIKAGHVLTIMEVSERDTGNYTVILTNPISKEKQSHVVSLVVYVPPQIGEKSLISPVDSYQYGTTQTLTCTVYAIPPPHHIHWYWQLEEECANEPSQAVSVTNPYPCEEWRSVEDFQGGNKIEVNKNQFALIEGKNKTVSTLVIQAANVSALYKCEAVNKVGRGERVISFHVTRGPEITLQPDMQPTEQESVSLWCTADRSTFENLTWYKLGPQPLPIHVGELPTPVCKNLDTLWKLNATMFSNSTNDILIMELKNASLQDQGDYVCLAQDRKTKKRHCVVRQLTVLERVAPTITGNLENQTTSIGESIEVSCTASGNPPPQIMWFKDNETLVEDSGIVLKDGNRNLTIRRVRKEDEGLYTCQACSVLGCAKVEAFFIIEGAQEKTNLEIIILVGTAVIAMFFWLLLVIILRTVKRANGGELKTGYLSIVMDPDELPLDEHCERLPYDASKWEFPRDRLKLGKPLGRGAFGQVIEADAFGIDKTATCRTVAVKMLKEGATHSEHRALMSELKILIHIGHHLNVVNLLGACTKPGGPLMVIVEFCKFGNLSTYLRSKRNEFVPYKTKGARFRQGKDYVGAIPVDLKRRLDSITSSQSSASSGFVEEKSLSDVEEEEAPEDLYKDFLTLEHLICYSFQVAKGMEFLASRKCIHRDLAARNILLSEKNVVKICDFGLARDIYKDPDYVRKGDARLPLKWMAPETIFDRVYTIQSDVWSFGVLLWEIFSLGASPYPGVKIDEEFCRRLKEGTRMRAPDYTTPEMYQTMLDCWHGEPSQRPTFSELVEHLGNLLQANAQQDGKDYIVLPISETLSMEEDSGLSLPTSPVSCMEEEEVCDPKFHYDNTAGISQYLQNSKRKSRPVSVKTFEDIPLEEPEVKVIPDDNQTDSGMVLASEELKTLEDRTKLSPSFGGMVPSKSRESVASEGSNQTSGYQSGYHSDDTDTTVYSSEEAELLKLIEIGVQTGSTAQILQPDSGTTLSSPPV
Mitogen-activated protein kinase 1 (Homo sapiens), sequence (P28482 whole entry, the tested form may be a part): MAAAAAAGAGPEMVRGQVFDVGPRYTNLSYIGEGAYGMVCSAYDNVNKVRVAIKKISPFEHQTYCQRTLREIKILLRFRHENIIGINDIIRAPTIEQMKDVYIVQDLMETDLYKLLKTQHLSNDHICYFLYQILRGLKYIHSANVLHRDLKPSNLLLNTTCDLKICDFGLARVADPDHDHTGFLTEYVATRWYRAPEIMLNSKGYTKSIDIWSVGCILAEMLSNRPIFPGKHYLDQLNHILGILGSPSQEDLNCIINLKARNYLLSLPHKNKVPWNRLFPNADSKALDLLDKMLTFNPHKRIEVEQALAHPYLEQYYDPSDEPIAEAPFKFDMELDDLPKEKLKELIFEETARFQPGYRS
Tyrosine-protein kinase Fyn (Homo sapiens), sequence (P06241 2-537 limits assumed): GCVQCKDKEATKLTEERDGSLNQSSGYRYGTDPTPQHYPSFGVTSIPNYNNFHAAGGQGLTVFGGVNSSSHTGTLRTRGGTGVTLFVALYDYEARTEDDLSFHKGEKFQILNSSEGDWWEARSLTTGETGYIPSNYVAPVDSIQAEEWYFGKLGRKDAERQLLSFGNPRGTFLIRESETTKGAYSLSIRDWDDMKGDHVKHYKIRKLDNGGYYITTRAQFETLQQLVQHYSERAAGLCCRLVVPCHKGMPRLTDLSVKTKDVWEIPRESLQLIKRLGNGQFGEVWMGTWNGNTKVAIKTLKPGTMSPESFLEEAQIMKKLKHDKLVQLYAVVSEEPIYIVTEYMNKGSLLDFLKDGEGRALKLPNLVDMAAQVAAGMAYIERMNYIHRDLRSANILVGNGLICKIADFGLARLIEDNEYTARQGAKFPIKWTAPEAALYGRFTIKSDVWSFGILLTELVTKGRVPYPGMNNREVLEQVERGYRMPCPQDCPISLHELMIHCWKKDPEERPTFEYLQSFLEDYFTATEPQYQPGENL
Tyrosine-protein kinase HCK (Homo sapiens), sequence (P08631 2-526 limits assumed): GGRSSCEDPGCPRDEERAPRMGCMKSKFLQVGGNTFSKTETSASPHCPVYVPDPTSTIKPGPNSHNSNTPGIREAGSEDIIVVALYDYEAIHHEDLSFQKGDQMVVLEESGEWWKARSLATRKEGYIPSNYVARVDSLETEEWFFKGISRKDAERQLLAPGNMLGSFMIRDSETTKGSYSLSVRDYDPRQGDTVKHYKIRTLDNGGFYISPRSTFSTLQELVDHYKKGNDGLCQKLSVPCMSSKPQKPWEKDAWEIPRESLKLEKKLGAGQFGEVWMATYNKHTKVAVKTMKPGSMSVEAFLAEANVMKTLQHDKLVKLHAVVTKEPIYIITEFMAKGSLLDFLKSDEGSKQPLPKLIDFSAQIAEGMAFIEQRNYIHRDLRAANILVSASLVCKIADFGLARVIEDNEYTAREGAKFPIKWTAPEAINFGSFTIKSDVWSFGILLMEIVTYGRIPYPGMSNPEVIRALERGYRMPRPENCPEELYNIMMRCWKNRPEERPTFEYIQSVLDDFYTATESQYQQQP
Epidermal growth factor receptor (Homo sapiens), sequence (P00533 whole entry, the tested form may be a part): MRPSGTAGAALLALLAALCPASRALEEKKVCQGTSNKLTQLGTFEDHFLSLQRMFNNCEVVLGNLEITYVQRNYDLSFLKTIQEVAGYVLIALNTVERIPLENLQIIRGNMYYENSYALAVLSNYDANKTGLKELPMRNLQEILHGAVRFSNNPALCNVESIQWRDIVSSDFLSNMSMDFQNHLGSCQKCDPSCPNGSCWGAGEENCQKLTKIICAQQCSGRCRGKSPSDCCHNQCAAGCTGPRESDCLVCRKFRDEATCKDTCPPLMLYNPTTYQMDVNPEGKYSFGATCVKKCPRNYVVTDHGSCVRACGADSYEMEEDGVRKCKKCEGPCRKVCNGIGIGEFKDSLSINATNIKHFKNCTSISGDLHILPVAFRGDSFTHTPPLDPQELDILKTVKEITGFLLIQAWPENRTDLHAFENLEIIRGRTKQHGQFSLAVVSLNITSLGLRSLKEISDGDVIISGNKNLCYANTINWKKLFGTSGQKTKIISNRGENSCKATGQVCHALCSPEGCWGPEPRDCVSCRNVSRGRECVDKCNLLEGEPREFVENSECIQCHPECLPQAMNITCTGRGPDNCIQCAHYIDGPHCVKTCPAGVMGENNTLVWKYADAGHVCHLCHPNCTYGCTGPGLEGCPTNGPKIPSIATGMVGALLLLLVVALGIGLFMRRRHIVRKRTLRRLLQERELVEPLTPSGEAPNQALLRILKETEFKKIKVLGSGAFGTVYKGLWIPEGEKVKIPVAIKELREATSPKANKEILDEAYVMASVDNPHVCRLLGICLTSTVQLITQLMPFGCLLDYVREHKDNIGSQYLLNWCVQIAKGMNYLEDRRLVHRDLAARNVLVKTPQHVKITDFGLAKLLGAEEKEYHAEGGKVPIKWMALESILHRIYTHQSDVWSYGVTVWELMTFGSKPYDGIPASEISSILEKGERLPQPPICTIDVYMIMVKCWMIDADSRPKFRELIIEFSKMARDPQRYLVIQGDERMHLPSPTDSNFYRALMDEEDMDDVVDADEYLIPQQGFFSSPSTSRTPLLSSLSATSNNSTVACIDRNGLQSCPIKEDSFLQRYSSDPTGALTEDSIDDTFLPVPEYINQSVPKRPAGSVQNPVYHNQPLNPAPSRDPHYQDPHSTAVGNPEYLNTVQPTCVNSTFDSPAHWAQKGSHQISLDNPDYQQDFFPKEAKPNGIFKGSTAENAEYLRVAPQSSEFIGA
Tyrosine-protein kinase TXK (Homo sapiens), sequence (P42681 whole entry, the tested form may be a part): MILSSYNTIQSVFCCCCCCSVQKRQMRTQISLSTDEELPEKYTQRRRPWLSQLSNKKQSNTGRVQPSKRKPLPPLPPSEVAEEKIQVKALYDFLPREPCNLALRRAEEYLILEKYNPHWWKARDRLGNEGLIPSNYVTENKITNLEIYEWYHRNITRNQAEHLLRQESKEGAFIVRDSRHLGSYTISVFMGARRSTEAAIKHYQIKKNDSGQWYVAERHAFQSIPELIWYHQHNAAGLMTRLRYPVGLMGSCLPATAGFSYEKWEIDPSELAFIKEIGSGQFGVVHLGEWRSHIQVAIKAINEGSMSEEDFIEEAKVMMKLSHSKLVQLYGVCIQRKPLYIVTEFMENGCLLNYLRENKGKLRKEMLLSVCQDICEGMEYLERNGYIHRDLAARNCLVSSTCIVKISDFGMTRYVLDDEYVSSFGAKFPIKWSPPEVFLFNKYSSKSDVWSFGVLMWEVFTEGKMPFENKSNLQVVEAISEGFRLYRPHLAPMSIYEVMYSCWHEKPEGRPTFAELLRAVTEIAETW
Proto-oncogene tyrosine-protein kinase Src (Homo sapiens), sequence (P12931 2-536 limits assumed): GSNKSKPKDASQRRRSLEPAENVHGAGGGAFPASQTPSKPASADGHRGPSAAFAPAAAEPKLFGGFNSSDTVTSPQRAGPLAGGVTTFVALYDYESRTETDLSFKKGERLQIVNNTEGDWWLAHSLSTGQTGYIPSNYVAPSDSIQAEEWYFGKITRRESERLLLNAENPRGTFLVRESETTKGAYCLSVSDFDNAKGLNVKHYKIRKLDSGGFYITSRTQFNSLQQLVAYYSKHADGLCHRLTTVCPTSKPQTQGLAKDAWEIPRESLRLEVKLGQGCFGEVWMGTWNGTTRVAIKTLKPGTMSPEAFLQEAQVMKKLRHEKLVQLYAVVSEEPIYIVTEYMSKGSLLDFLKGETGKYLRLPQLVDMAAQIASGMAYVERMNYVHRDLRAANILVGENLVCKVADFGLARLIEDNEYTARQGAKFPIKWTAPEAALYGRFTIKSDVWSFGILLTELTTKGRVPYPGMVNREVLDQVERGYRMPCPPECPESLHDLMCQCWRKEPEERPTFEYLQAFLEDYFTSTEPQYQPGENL

## Cc1nc2nc(Sc3ccccc3)cnc2cc1NC(=O)Nc1ccccc1
[1]
  inhibition: 2%
[2]
  inhibition: 8%
[3]
  AUC(0-t) at 8 h: 2.85 µM·h
Mus musculus [4]
  inhibition: Active
MDA-MB-231
  Activity: >50%
[5]
  inhibition: 3%
[6]
  inhibition: 0%
[7]
  inhibition: inactive
[8]
  inhibition: 18%
HCC1954 [9]
  Activity: >50%
Mus musculus [10]
  inhibition: Active
T47D
  Activity: >50%
[11]
  Cmax: 470 nM
[12]
  inhibition: 8%
[13]
  inhibition: inactive
[14]
  inhibition: 1%
[15]
  inhibition: 0%
[16]
  inhibition: inactive
[17]
  inhibition: 3%
[18]
  inhibition: 9%
[19]
  inhibition: 13%
[20]
  AUC(0-t) at 24 h: 70.8 µM·h
[21]
  Cmax: 820 nM
[22]
  AUC(0-t) at 8 h: 131 µM·h
[23]
  inhibition: 0%
HCC1954 [24]
  IC50: 1500 nM
[25]
  inhibition: 6%
[26]
  inhibition: 0%
[27]
  inhibition: 40%
